Results taken from US10172814B2, “Substituted pyridyl-cycloalkyl-carboxylic acids, compositions containing them and medical uses thereof” (BAYER PHARMA AKTIENGESELLSCHAFT, priority 2014, dated 2019).
pIC50: −log10 of the molar value.

Target: human PTGES (Homo sapiens (Human), UniProt O14684)
Experiment: Human PTGES biochemical enzyme inhibition assay (conversion of PGH2 to PGE2, TR-FRET)
Details: Enzymatic conversion of PGH2 to PGE2; read-out: Human PTGES IC50
Summary of the method: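 FLAG-tagged human PTGES from Hi-5 insect cells preincubated 15–20 min with compound in pH 7.2 phosphate buffer with 2.5 mM reduced glutathione; reaction started with 8 nM PGH2 final, stopped with SnCl2/KF.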

Sequence of human PTGES (O14684 whole entry): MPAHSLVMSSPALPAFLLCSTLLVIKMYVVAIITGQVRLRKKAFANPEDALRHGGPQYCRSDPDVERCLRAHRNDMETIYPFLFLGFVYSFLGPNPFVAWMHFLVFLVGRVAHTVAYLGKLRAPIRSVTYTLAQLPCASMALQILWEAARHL

Compound	pIC50
CCOc1cncc(-c2ccc(C(C(=O)Nc3cccc(CCC(=O)O)c3C)C3CCCC3)c(F)c2)c1 (racemic) [Example 52, (R/S) 3-[3-({Cyclopentyl[4-(5-ethoxypyridin-3-yl)-2-fluorophenyl]acetyl}amino)-2-methylphenyl]propanoic acid]	6.56
Cc1c(CCC(=O)O)cccc1NC(=O)C(c1ccc(-c2cncc(C(F)(F)F)c2)cc1F)C1CCCC1 (racemic) [Example 53, (R/S) 3-{3-[(Cyclopentyl{2-fluoro-4-[5-(trifluoromethyl)pyridin-3-yl]phenyl}acetyl)amino]-2-methylphenyl}propanoic acid]	7.27
Cc1c(CCC(=O)O)cccc1NC(=O)C(c1ccc(-c2cncc(C(F)(F)F)c2)cc1)C1CCC1 (racemic) [Example 54, (R/S) 3-{3-[(Cyclobutyl{4-[5-(trifluoromethyl)pyridin-3-yl]phenyl}acetyl)amino]-2-methylphenyl}propanoic acid]	7.56
CCOc1cncc(-c2ccc(C(C(=O)Nc3cccc(CCC(=O)O)c3C)C3CCC3)cc2)c1 (racemic) [Example 58, (R/S) 3-[3-({Cyclobutyl[4-(5-ethoxypyridin-3-yl)phenyl]acetyl}amino)-2-methylphenyl]propanoic acid]	6.68
Cc1cc(-c2ccc(C(C(=O)Nc3cccc(CCC(=O)O)c3C)C3CCC3)cc2)cnc1C (racemic) [Example 59, (R/S) 3-[3-({Cyclobutyl[4-(5,6-dimethylpyridin-3-yl)phenyl]acetyl}amino)-2-methylphenyl]propanoic acid]	6.71
Cc1c(CCC(=O)O)cccc1NC(=O)C(c1ccc(-c2cncc(F)c2)cc1)C1CCC1 (racemic) [Example 60, (R/S) 3-[3-({Cyclobutyl[4-(5-fluoropyridin-3-yl)phenyl]acetyl}amino)-2-methylphenyl]propanoic acid]	6.32
Cc1ncc(-c2ccc(C(C(=O)Nc3cccc(CCC(=O)O)c3C)C3CCC3)cc2)cc1Cl (racemic) [Example 61, (R/S) 3-[3-({[4-(5-chloro-6-methylpyridin-3-yl)phenyl](cyclobutyl)acetyl}amino)-2-methylphenyl]propanoic acid]	7.49
Cc1ncc(-c2ccc(C(C(=O)Nc3cccc(CCC(=O)O)c3C)C3CCC3)cc2)cc1F (racemic) [Example 62, (R/S) 3-[3-({[4-(5-Fluoro-6-methylpyridin-3-yl)phenyl](cyclobutyl)acetyl}amino)-2-methylphenyl]propanoic acid]	6.83
Cc1c(CCC(=O)O)cccc1NC(=O)C(c1ccc(-c2cncc(OC(F)F)c2)cc1)C1CCC1 (racemic) [Example 63, (R/S) 3-{3-[(Cyclobutyl{4-[5-(difluoromethoxy)pyridin-3-yl]phenyl}acetyl)amino]-2-methylphenyl}propanoic acid]	6.99
Cc1cncc(-c2ccc(C(C(=O)Nc3cccc(CCC(=O)O)c3C)C3CCC3)cc2)c1 (racemic) [Example 64, (R/S) 3-[3-({Cyclobutyl[4-(5-methylpyridin-3-yl)phenyl]acetyl}amino)-2-methylphenyl]propanoic acid]	6.46
Cc1c(CCC(=O)O)cccc1NC(=O)C(c1ccc(-c2cncc(Cl)c2)cc1)C1CCCCC1 (racemic) [Example 65, (R/S) 3-[3-({[4-(5-Chloropyridin-3-yl)phenyl](cyclohexyl)acetyl}amino)-2-methylphenyl]propanoic acid]	6.71
Cc1c(CCC(=O)O)cccc1NC(=O)C(c1ccc(-c2cncc(C(F)(F)F)c2)cc1)C1CCCCC1 (racemic) [Example 66, (R/S) 3-{3-[(Cyclohexyl{4-[5-(trifluoromethyl)pyridin-3-yl]phenyl}acetyl)amino]-2-methylphenyl}propanoic acid]	7.27
CCOc1cncc(-c2ccc(C(C(=O)Nc3cccc(CCC(=O)O)c3C)C3CCCCC3)cc2)c1 (racemic) [Example 67, (R/S) 3-[3-({Cyclohexyl[4-(5-ethoxypyridin-3-yl)phenyl]acetyl}amino)-2-methylphenyl]propanoic acid]	6.48
CCC(CC(=O)O)c1cccc(NC(=O)C(c2ccc(-c3cncc(C)c3)cc2)C2CCCC2)c1C (racemic) [Example 104, (3R/S)-3-[3-({(2RS)-2-Cyclopentyl-2-[4-(5-methylpyridin-3-yl)phenyl]acetyl}amino)-2-methylphenyl]pentanoic acid]	7.02
Cc1c(CCC(=O)O)cccc1NC(=O)C(c1ccc(-c2cncc(C(F)(F)F)c2)cc1Cl)C1CCCC1 (racemic) [Example 161, (R/S) 3-(3-{[{2-chloro-4-[5-(trifluoromethyl)pyridin-3-yl]phenyl}(cyclopentyl)acetyl]amino}-2-methylphenyl)propanoic acid]	6.56
Cc1c(CCC(=O)O)cc(F)cc1NC(=O)C(c1ccc(-c2cncc(C(F)(F)F)c2)cc1)C1CCCC1 (racemic) [Example 167, (R/S) 3-{3-[(cyclopentyl{4-[5-(trifluoromethyl)pyridin-3-yl]phenyl}acetyl)amino]-5-fluoro-2-methylphenyl}propanoic acid]	6.53
Cc1c(CCC(=O)O)cc(F)cc1NC(=O)C(c1ccc(-c2cncc(Cl)c2)cc1)C1CCCC1 (racemic) [Example 168, (R/S) 3-[3-({[4-(5-chloropyridin-3-yl)phenyl](cyclopentyl)acetyl}amino)-5-fluoro-2-methylphenyl]propanoic acid]	5.92
Cc1ncc(-c2ccc(C(C(=O)Nc3cc(F)cc(CCC(=O)O)c3C)C3CCCC3)cc2)cc1Cl (racemic) [Example 169, (R/S) 3-[3-({[4-(5-chloro-6-methylpyridin-3-yl)phenyl](cyclopentyl)acetyl}amino)-5-fluoro-2-methylphenyl]propanoic acid]	6.60
CCOc1cncc(-c2ccc(C(C(=O)Nc3cc(F)cc(CCC(=O)O)c3C)C3CCCC3)cc2)c1 (racemic) [Example 170, (R/S) 3-[3-({[4-(5-ethoxypyridin-3-yl)phenyl](cyclopentyl)acetyl}amino)-5-fluoro-2-methylphenyl]propanoic acid]	6.24
Cc1c(NCC(=O)O)cccc1NC(=O)C(c1ccc(-c2cncc(C(F)(F)F)c2)cc1)C1CCCC1 (racemic) [Example 171, (R/S) N-{3-[(cyclopentyl{4-[5-(trifluoromethyl)pyridin-3-yl]phenyl}acetyl)amino]-2-methylphenyl}glycine]	6.50
Cc1cc(C(C(=O)Nc2cccc(CCC(=O)O)c2C)C2CCCC2)c(Cl)cc1-c1cncc(Cl)c1 (racemic) [Example 172, (R/S) 3-[3-({[2-chloro-4-(5-chloropyridin-3-yl)-5-methylphenyl](cyclopentyl)acetyl}amino)-2-methylphenyl]propanoic acid]	5.73
Cc1cc(C(C(=O)Nc2cccc(CCC(=O)O)c2C)C2CCCC2)c(Cl)cc1-c1cncc(C(F)(F)F)c1 (racemic) [Example 173, (R/S) 3-(3-{[{2-chloro-5-methyl-4-[5-(trifluoromethyl)pyridin-3-yl]phenyl}(cyclopentyl)acetyl]amino}-2-methylphenyl)propanoic acid]	5.91
Cc1cc(C(C(=O)Nc2cccc(CCC(=O)O)c2C)C2CCCC2)c(Cl)cc1-c1cnc(C)c(Cl)c1 (racemic) [Example 174, (R/S) 3-[3-({[2-chloro-4-(5-chloro-6-methylpyridin-3-yl)-5-methylphenyl](cyclopentyl)acetyl}amino)-2-methylphenyl]propanoic acid]	6.35
Cc1c(CCC(=O)O)cccc1NC(=O)C(c1ccc(-c2cncc(C(F)(F)F)c2)c(Cl)c1)C1CCCC1 (racemic) [Example 175, (R/S) 3-[3-({[3-chloro-4-(5-(trifluoromethyl)pyridin-3-yl)phenyl](cyclopentyl)acetyl}amino)-2-methylphenyl]propanoic acid]	7.46
Cc1ncc(-c2ccc(C(C(=O)Nc3cccc(CCC(=O)O)c3C)C3CCCC3)cc2Cl)cc1Cl (racemic) [Example 176, (R/S) 3-[3-({[3-chloro-4-(5-chloro-6-methylpyridin-3-yl)phenyl](cyclopentyl)acetyl}amino)-2-methylphenyl]propanoic acid]	6.70
Cc1c(CCC(=O)O)cccc1NC(=O)C(c1cc(F)c(-c2cncc(Cl)c2)cc1F)C1CCCC1 (racemic) [Example 178, (R/S) 3-[3-({[4-(5-chloropyridin-3-yl)-2,5-difluorophenyl](cyclopentyl)acetyl}amino)-2-methylphenyl]propanoic acid]	6.57
Cc1c(CCC(=O)O)cccc1NC(=O)C(c1cc(F)c(-c2cncc(C(F)(F)F)c2)cc1F)C1CCCC1 (racemic) [Example 179, (R/S) 3-{3-[(cyclopentyl{2,5-difluoro-4-[5-(trifluoromethyl)pyridin-3-yl]phenyl}acetyl)amino]-2-methylphenyl}propanoic acid]	7.07
Cc1ncc(-c2cc(F)c(C(C(=O)Nc3cccc(CCC(=O)O)c3C)C3CCCC3)cc2F)cc1Cl (racemic) [Example 180, (R/S) 3-[3-({[4-(5-chloro-6-methylpyridin-3-yl)-2,5-difluorophenyl](cyclopentyl)acetyl}amino)-2-methylphenyl]propanoic acid]	7.18
Cc1cc(C(C(=O)Nc2cccc(CCC(=O)O)c2C)C2CCCC2)c(F)cc1-c1cncc(Cl)c1 (racemic) [Example 181, (R/S) 3-[3-({[4-(5-chloropyridin-3-yl)-2-fluoro-5-methylphenyl](cyclopentyl)acetyl}amino)-2-methylphenyl]propanoic acid]	5.64
Cc1cc(C(C(=O)Nc2cccc(CCC(=O)O)c2C)C2CCCC2)c(F)cc1-c1cnc(C)c(Cl)c1 (racemic) [Example 182, (R/S) 3-[3-({[4-(5-chloro-6-methylpyridin-3-yl)-2-fluoro-5-methylphenyl](cyclopentyl)acetyl}amino)-2-methylphenyl]propanoic acid]	6.13
